Source: ChEMBL document CHEMBL1138190, “Synthesis and antibacterial activity of novel C12 vinyl ketolides” (J Med Chem, 2006)
Converted amounts (≈) assume the structure as drawn.

Tests used:
Assay type in all cases: functional
[1] = tested on: Haemophilus influenzae; assay: Antibacterial activity against Haemophilus influenzae 2762
[2] = tested on: Haemophilus influenzae; assay: Antibacterial activity against Haemophilus influenzae 49247
[3] = tested on: Staphylococcus epidermidis; assay: Antibacterial activity against Staphylococcus epidermidis f50654
[4] = tested on: Staphylococcus aureus; assay: Antibacterial activity against Staphylococcus aureus 29213
[5] = tested on: Streptococcus pneumoniae; assay: Antibacterial activity against Streptococcus pneumoniae Mef S 3427
[6] = tested on: Streptococcus pyogenes; assay: Antibacterial activity against Streptococcus pyogenes 8668
[7] = tested on: Streptococcus pneumoniae; assay: Antibacterial activity against Streptococcus pneumoniae 297-749
[8] = tested on: Staphylococcus epidermidis; assay: Antibacterial activity against Staphylococcus epidermidis 14990
[9] = tested on: Enterococcus faecalis; assay: Antibacterial activity against Enterococcus faecalis bc11148-2
[10] = tested on: Staphylococcus aureus; assay: Antibacterial activity against Staphylococcus aureus 33591
[11] = tested on: Enterococcus faecalis; assay: Antibacterial activity against Enterococcus faecalis 29212
[12] = tested on: Streptococcus pneumoniae; assay: Antibacterial activity against Streptococcus pneumoniae 49619
[13] = tested on: Streptococcus pneumoniae; assay: Antibacterial activity against Streptococcus pneumoniae Erm 6849
[14] = tested on: Streptococcus pneumoniae; assay: Antibacterial activity against Streptococcus pneumoniae Mef 5654
[15] = tested on: Streptococcus pneumoniae; assay: Antibacterial activity against Streptococcus pneumoniae 280-962

| MIC [1] [µg/mL] | MIC [2] [µg/mL] | MIC [3] [µg/mL] | MIC [4] [µg/mL] | MIC [5] [µg/mL] | MIC [6] [µg/mL] | MIC [7] [µg/mL] | MIC [8] [µg/mL] | MIC [9] [µg/mL] | MIC [10] [µg/mL] | MIC [11] [µg/mL] | MIC [12] [µg/mL] | MIC [13] [µg/mL] | MIC [14] [µg/mL] | MIC [15] [µg/mL] | SMILES |
| --- | --- | --- | --- | --- | --- | --- | --- | --- | --- | --- | --- | --- | --- | --- | --- |
| 1.56 (≈ 1.89 µM) | 3.13 (≈ 3.8 µM) | 0.2 (≈ 0.243 µM) | 0.1 (≈ 0.121 µM) | 0.1 (≈ 0.121 µM) | ≤ 0.05 | ≤ 0.05 | 0.2 (≈ 0.243 µM) | 0.4 (≈ 0.485 µM) | > 50 | 0.1 (≈ 0.121 µM) | ≤ 0.05 | 0.2 (≈ 0.243 µM) | 0.4 (≈ 0.485 µM) | ≤ 0.05 | C=C[C@]12OC(=O)N(CCCCn3cnc(-c4cccnc4)c3)[C@@H]1[C@@H](C)C(=O)[C@H](C)C[C@@](C)(OC)[C@H](O[C@@H]1O[C@H](C)C[C@H](N(C)C)[C@H]1O)[C@@H](C)C(=O)[C@@H](C)C(=O)O[C@@H]2CC |
| 3.13 (≈ 3.68 µM) | 6.25 (≈ 7.35 µM) | 0.2 (≈ 0.235 µM) | 0.2 (≈ 0.235 µM) | 0.1 (≈ 0.118 µM) | ≤ 0.05 | ≤ 0.05 | 0.2 (≈ 0.235 µM) | 0.2 (≈ 0.235 µM) | > 50 | 0.1 (≈ 0.118 µM) | ≤ 0.05 | ≤ 0.05 | 0.4 (≈ 0.471 µM) | ≤ 0.05 | C=C[C@]12OC(=O)N(CCN(C)Cc3ccnc(-c4cccnc4)c3)[C@@H]1[C@@H](C)C(=O)[C@H](C)C[C@@](C)(OC)[C@H](O[C@@H]1O[C@H](C)C[C@H](N(C)C)[C@H]1O)[C@@H](C)C(=O)[C@@H](C)C(=O)O[C@@H]2CC |
| 0.2 (≈ 0.238 µM) | 3.13 (≈ 3.73 µM) | 0.1 (≈ 0.119 µM) | 0.1 (≈ 0.119 µM) | 0.2 (≈ 0.238 µM) | ≤ 0.05 | ≤ 0.05 | 0.1 (≈ 0.119 µM) | 6.25 (≈ 7.45 µM) | > 50 | 0.2 (≈ 0.238 µM) | ≤ 0.05 | 3.13 (≈ 3.73 µM) | 0.78 (≈ 0.93 µM) | ≤ 0.05 | C=C[C@]12OC(=O)N(CCCCn3ccc4nc(C(C)=O)ccc43)[C@@H]1[C@@H](C)C(=O)[C@H](C)C[C@@](C)(OC)[C@H](O[C@@H]1O[C@H](C)C[C@H](N(C)C)[C@H]1O)[C@@H](C)C(=O)[C@@H](C)C(=O)O[C@@H]2CC |
| 0.78 (≈ 0.913 µM) | 6.25 (≈ 7.32 µM) | 0.1 (≈ 0.117 µM) | 0.1 (≈ 0.117 µM) | 0.1 (≈ 0.117 µM) | ≤ 0.05 | ≤ 0.05 | 0.2 (≈ 0.234 µM) | 0.78 (≈ 0.913 µM) | > 50 | ≤ 0.05 | ≤ 0.05 | 0.4 (≈ 0.468 µM) | 0.78 (≈ 0.913 µM) | ≤ 0.05 | C=C[C@]12OC(=O)N(CCCCn3cnc(-c4ccc(OC)nc4)c3)[C@@H]1[C@@H](C)C(=O)[C@H](C)C[C@@](C)(OC)[C@H](O[C@@H]1O[C@H](C)C[C@H](N(C)C)[C@H]1O)[C@@H](C)C(=O)[C@@H](C)C(=O)O[C@@H]2CC |
| 0.78 (≈ 0.944 µM) | 6.25 (≈ 7.57 µM) | 0.1 (≈ 0.121 µM) | 0.2 (≈ 0.242 µM) | 0.2 (≈ 0.242 µM) | ≤ 0.05 | ≤ 0.05 | 0.2 (≈ 0.242 µM) | 0.4 (≈ 0.484 µM) | > 50 | 0.1 (≈ 0.121 µM) | ≤ 0.05 | 0.1 (≈ 0.121 µM) | 0.78 (≈ 0.944 µM) | ≤ 0.05 | C=C[C@]12OC(=O)N(CCCC(C)(C)n3cnc4ncccc43)[C@@H]1[C@@H](C)C(=O)[C@H](C)C[C@@](C)(OC)[C@H](O[C@@H]1O[C@H](C)C[C@H](N(C)C)[C@H]1O)[C@@H](C)C(=O)[C@@H](C)C(=O)O[C@@H]2CC |
| 0.78 (≈ 0.938 µM) | 3.13 (≈ 3.76 µM) | 0.1 (≈ 0.12 µM) | 0.2 (≈ 0.241 µM) | 0.1 (≈ 0.12 µM) | ≤ 0.05 | ≤ 0.05 | 0.1 (≈ 0.12 µM) | 1.56 (≈ 1.88 µM) | > 50 | 0.1 (≈ 0.12 µM) | ≤ 0.05 | 3.13 (≈ 3.76 µM) | 0.78 (≈ 0.938 µM) | ≤ 0.05 | C=C[C@]12OC(=O)N(CCCCn3cc(Cl)c4ncccc43)[C@@H]1[C@@H](C)C(=O)[C@H](C)C[C@@](C)(OC)[C@H](O[C@@H]1O[C@H](C)C[C@H](N(C)C)[C@H]1O)[C@@H](C)C(=O)[C@@H](C)C(=O)O[C@@H]2CC |
| 1.56 (≈ 1.79 µM) | 6.25 (≈ 7.16 µM) | 0.2 (≈ 0.229 µM) | 0.2 (≈ 0.229 µM) | ≤ 0.05 | ≤ 0.05 | ≤ 0.05 | 0.1 (≈ 0.115 µM) | 3.13 (≈ 3.59 µM) | > 50 | 0.1 (≈ 0.115 µM) | ≤ 0.05 | 0.4 (≈ 0.458 µM) | 0.78 (≈ 0.894 µM) | ≤ 0.05 | C=C[C@]12OC(=O)N(CCCCn3cc(-c4ccc(Cl)nc4)nc3C)[C@@H]1[C@@H](C)C(=O)[C@H](C)C[C@@](C)(OC)[C@H](O[C@@H]1O[C@H](C)C[C@H](N(C)C)[C@H]1O)[C@@H](C)C(=O)[C@@H](C)C(=O)O[C@@H]2CC |
